Measurements reported in PubChem BioAssay AID276 (DTP/NCI, 2004).
Inconclusive results and toxic doses are left out. How the source made its calls: active means survival T/C of 150% or more; inactive means T/C below 125% in these data.

Tested on: B6C3F1 mice, Lewis lung carcinoma iv, survival T/C
Experiment: NCI In Vivo Anticancer Drug Screen. Data for tumor model Lewis Lung Carcinoma (intravenous) in B6C3F1 mice
Details: endpoint: median survival time, schedule: Q01DX009 (ip), higher = longer survival
Procedure, shortened: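 Antitumor activity is assessed in tumor-bearing mice by comparing survival after compound treatment against vehicle-treated controls, reported as a T/C ratio.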

[1] = dose: 12.5 mg/kg/injection, vehicle: saline with Tween-80
[2] = dose: 25.0 mg/kg/injection, vehicle: saline with Tween-80
[3] = dose: 50.0 mg/kg/injection, vehicle: saline with Tween-80
[4] = dose: 100.0 mg/kg/injection, vehicle: saline with Tween-80
[5] = dose: 12.5 mg/kg/injection, vehicle: saline
[6] = dose: 25.0 mg/kg/injection, vehicle: saline
[7] = dose: 50.0 mg/kg/injection, vehicle: saline
[8] = dose: 100.0 mg/kg/injection, vehicle: saline
[9] = dose: 200.0 mg/kg/injection, vehicle: saline
[10] = dose: 3.12 mg/kg/injection, vehicle: saline

Measured: T/C

CC[C@@H](C)[C@@H]1NC(=O)C(NC(=O)C(CC(C)C)N(C)C(=O)C2CCCN2C(=O)C(C)O)C(C)OC(=O)C(Cc2ccc(OC)cc2)N(C)C(=O)C2CCCN2C(=O)C(CC(C)C)NC(=O)C(C)C(=O)C(C(C)C)OC(=O)C[C@H]1O (some centres not stated)
inactive: dose: 25.0 micrograms/kg/injection, vehicle: distilled water + alcohol 96 % of control | dose: 50.0 micrograms/kg/injection, vehicle: distilled water + alcohol 102 % of control | dose: 100.0 micrograms/kg/injection, vehicle: distilled water + alcohol 98 % of control | dose: 200.0 micrograms/kg/injection, vehicle: distilled water + alcohol 96 % of control | dose: 400.0 micrograms/kg/injection, vehicle: distilled water + alcohol 98 % of control

CC(Oc1ccccc1-c1ccccc1)C(=O)N(C)C (configuration not stated)
inactive: [1] 106 % of control | [2] 110 % of control | [3] 107 % of control | [4] 96 % of control | dose: 200.0 mg/kg/injection, vehicle: saline with Tween-80 101 % of control | dose: 400.0 mg/kg/injection, vehicle: saline with Tween-80 100 % of control

CC(=O)OCC1OC(n2ccc(N)nc2=O)C(OC(C)=O)C1OC(C)=O (configuration not stated)
inactive: [5] 92 % of control | [6] 100 % of control | [7] 101 % of control | [8] 115 % of control | [9] 115 % of control

Cc1nnc2ncccn12
inactive: [5] 104 % of control | [6] 110 % of control | [7] 101 % of control | [8] 96 % of control | dose: 400.0 mg/kg/injection, vehicle: saline 103 % of control

CC(C)(C)c1ccc(CN2CCN(C(c3ccccc3)c3ccc(Cl)cc3)CC2)cc1 (configuration not stated)
inactive: dose: 8.0 mg/kg/injection, vehicle: Klucel (hydroxypropylcellulose) (HPC) 117 % of control | dose: 16.0 mg/kg/injection, vehicle: Klucel (hydroxypropylcellulose) (HPC) 115 % of control | dose: 32.0 mg/kg/injection, vehicle: Klucel (hydroxypropylcellulose) (HPC) 105 % of control | dose: 64.0 mg/kg/injection, vehicle: Klucel (hydroxypropylcellulose) (HPC) 103 % of control

NC(=S)N/N=C\c1ncccc1OCc1cccc(N)c1
inactive: dose: 12.5 mg/kg/injection, vehicle: distilled water + Tween-80 103 % of control | dose: 25.0 mg/kg/injection, vehicle: distilled water + Tween-80 109 % of control | dose: 50.0 mg/kg/injection, vehicle: distilled water + Tween-80 109 % of control | dose: 100.0 mg/kg/injection, vehicle: distilled water + Tween-80 102 % of control | dose: 200.0 mg/kg/injection, vehicle: distilled water + Tween-80 121 % of control

C=C1C(=O)OC2/C=C(\C)CC(O)/C=C(/CO)CC(OC(=O)/C(C)=C/C)C12 (configuration not stated)
inactive: dose: 15.0 mg/kg/injection, vehicle: saline with Tween-80 91 % of control | dose: 30.0 mg/kg/injection, vehicle: saline with Tween-80 101 % of control

CCCCc1ccc2nc(NC(=O)OC)[nH]c2c1
inactive: dose: 6.25 mg/kg/injection, vehicle: saline with Tween-80 111 % of control | [1] 97 % of control | [2] 95 % of control | [3] 95 % of control | [4] 111 % of control

COC(=O)Nc1cn2ccc(C(Cl)=C(Cl)Cl)cc2n1
inactive: dose: 100.0 mg/kg/injection, vehicle: Klucel (hydroxypropylcellulose) (HPC) 116 % of control | dose: 200.0 mg/kg/injection, vehicle: Klucel (hydroxypropylcellulose) (HPC) 103 % of control

CCOC(=O)C(N)CSC(=O)NC (configuration not stated)
inactive: [5] 98 % of control | [6] 103 % of control | [7] 93 % of control | [8] 101 % of control | [9] 109 % of control

CN(C)N=Nc1ccccc1
inactive: dose: 12.5 mg/kg/injection, vehicle: Klucel (hydroxypropylcellulose) (HPC) 108 % of control | dose: 25.0 mg/kg/injection, vehicle: Klucel (hydroxypropylcellulose) (HPC) 115 % of control

CCCCCCCC(=O)N/N=C(\CO)[C@]1(O)Cc2c(O)c3c(c(O)c2[C@@H](OC2CC(N)C(O)C(C)O2)C1)C(=O)c1c(OC)cccc1C3=O (some centres not stated)
inactive: dose: 1.5 mg/kg/injection, vehicle: saline 100 % of control | dose: 1.5 mg/kg/injection, vehicle: water 108 % of control | dose: 3.0 mg/kg/injection, vehicle: saline 102 % of control | dose: 3.0 mg/kg/injection, vehicle: water 104 % of control | dose: 6.0 mg/kg/injection, vehicle: saline 105 % of control | dose: 6.0 mg/kg/injection, vehicle: water 99 % of control | dose: 12.0 mg/kg/injection, vehicle: saline 112 % of control | dose: 12.0 mg/kg/injection, vehicle: water 92 % of control | dose: 24.0 mg/kg/injection, vehicle: saline 87 % of control

CC1CN1P1(N2CC2C)=NP(N2CC2C)(N2CC2C)=NP(N2CC2C)(N2CC2C)=N1 (configuration not stated)
inactive: [10] 100 % of control | dose: 6.25 mg/kg/injection, vehicle: saline 100 % of control | [5] 98 % of control | [6] 97 % of control | [7] 90 % of control

C[C@H](N)C(=O)N[C@@H]1[C@H]2C(=C(O)C[C@@H](O)[C@@H]2O)C(=O)O[C@]1(C)C(Cl)Cl
inactive: dose: 0.19 mg/kg/injection, vehicle: Klucel (hydroxypropylcellulose) (HPC) 97 % of control | dose: 0.38 mg/kg/injection, vehicle: Klucel (hydroxypropylcellulose) (HPC) 101 % of control | dose: 0.75 mg/kg/injection, vehicle: Klucel (hydroxypropylcellulose) (HPC) 111 % of control | dose: 1.5 mg/kg/injection, vehicle: Klucel (hydroxypropylcellulose) (HPC) 100 % of control

[Cl][Co]([Cl])[Cl].[NH-]CC[N-]CC[NH-]
inactive: [6] 103 % of control | [7] 96 % of control | [8] 93 % of control

C=C1C(=O)OCC1(C(=O)OCC)C(=O)OCC
inactive: dose: 4.0 mg/kg/injection, vehicle: saline with Tween-80 95 % of control | dose: 8.0 mg/kg/injection, vehicle: saline with Tween-80 103 % of control | dose: 16.0 mg/kg/injection, vehicle: saline with Tween-80 105 % of control | dose: 32.0 mg/kg/injection, vehicle: saline with Tween-80 96 % of control

Cc1cc(NCCCN(C)C)c2ccc3c(ccc4c(NCCCN(C)C)cc(C)nc43)c2n1
inactive: dose: 0.19 mg/kg/injection, vehicle: saline with Tween-80 101 % of control | dose: 0.39 mg/kg/injection, vehicle: saline with Tween-80 109 % of control | dose: 0.78 mg/kg/injection, vehicle: saline with Tween-80 100 % of control | dose: 1.56 mg/kg/injection, vehicle: saline with Tween-80 95 % of control | dose: 3.12 mg/kg/injection, vehicle: saline with Tween-80 100 % of control | [10] 109 % of control
